Assay results: paper PMC10165273, “Itch receptor MRGPRX4 interacts with the receptor activity–modifying proteins” (The Journal of Biological Chemistry, 2023)
Like-named read-outs stand apart in the source and are kept apart here.

Molecular target: T1, MRGPRX4 (Homo sapiens, UniProt Q96LA9)
T1 construct: expressed in transfected cells; host or cells: HEK293T
Test: IP1 accumulation HTRF assay, MRGPRX4;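 for IP1 accumulation, dose-response (Figure 1a): 0% is unstimulated mock-transfected cells and 100% is fully stimulated MRGPRX4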
Assay type: cell-based
Settings: 2 h; for activation at 16 µM: log [agonist] (M) -4.79588; for activation at 3.2 µM: log [agonist] (M) -5.49485; for activation at 0.64 µM: log [agonist] (M) -6.19382; for activation at 0.128 µM: log [agonist] (M) -6.89279; for activation at 0.0256 µM: log [agonist] (M) -7.59176

[1] = SP-FLAG-Nluc-HT7-MRGX4_Tet-GFP10-1D4, read-out: normalized IP1 accumulation
[2] = SP-FLAG-Nluc-HT7-MRGX4_Tet-GFP10-1D4 no dox, read-out: normalized IP1 accumulation

T1 sequence (Q96LA9 whole entry): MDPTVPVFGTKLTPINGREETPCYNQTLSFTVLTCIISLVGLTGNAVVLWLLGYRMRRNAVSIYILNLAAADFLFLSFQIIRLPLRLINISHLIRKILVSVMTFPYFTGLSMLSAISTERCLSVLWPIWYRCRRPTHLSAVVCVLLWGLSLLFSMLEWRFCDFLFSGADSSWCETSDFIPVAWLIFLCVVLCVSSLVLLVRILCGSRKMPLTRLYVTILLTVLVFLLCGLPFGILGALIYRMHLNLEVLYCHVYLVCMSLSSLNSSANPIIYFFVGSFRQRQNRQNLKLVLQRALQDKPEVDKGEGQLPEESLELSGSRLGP

Structure (SMILES): CC(C)[C@H]1CC[C@H](C(=O)N[C@H](Cc2ccccc2)C(=O)O)CC1 [Nateglinide]
- activation at 100 µM (HA-MRGX4-1D4, log [agonist] (M) -4, read-out: normalized IP1 accumulation): 84.6%
- activation at 20 µM (HA-MRGX4-1D4, log [agonist] (M) -4.69897, read-out: normalized IP1 accumulation): 63.4%
- activation at 4 µM (HA-MRGX4-1D4, log [agonist] (M) -5.39794, read-out: normalized IP1 accumulation): 30.8%
- activation at 0.8 µM (HA-MRGX4-1D4, log [agonist] (M) -6.09691, read-out: normalized IP1 accumulation): 17.7%
- activation at […] (HA-MRGX4-1D4, log [agonist] (M) -6.79588, read-out: normalized IP1 accumulation): 12.4%
- activation at 0.032 µM (HA-MRGX4-1D4, log [agonist] (M) -7.49485, read-out: normalized IP1 accumulation): 12.5%
- activation at 100 µM (MRGPRX4: 0.25pg/cell, log [Nateglinide] (M) -4, Fig S1b, read-out: IP1 accumulation): 76.9%
- activation at 20 µM (MRGPRX4: 0.25pg/cell, log [Nateglinide] (M) -4.69897, Fig S1b, read-out: IP1 accumulation): 53.7%
- activation at 4 µM (MRGPRX4: 0.25pg/cell, log [Nateglinide] (M) -5.39794, Fig S1b, read-out: IP1 accumulation): 21.2%
- activation at […] (MRGPRX4: 0.25pg/cell, log [Nateglinide] (M) -6.79588, Fig S1b, read-out: IP1 accumulation): 3.43%
- activation at 0.032 µM (MRGPRX4: 0.25pg/cell, log [Nateglinide] (M) -7.49485, Fig S1b, read-out: IP1 accumulation): 3.78%
- activation at 100 µM (MRGPRX4: 0.5pg/cell, log [Nateglinide] (M) -4, Fig S1b, read-out: IP1 accumulation): 92.5%
- activation at 20 µM (MRGPRX4: 0.5pg/cell, log [Nateglinide] (M) -4.69897, Fig S1b, read-out: IP1 accumulation): 65.9%
- activation at 4 µM (MRGPRX4: 0.5pg/cell, log [Nateglinide] (M) -5.39794, Fig S1b, read-out: IP1 accumulation): 33%
- activation at 0.8 µM (MRGPRX4: 0.5pg/cell, log [Nateglinide] (M) -6.09691, Fig S1b, read-out: IP1 accumulation): 11.8%
- activation at […] (MRGPRX4: 0.5pg/cell, log [Nateglinide] (M) -6.79588, Fig S1b, read-out: IP1 accumulation): 6.22%
- activation at 0.032 µM (MRGPRX4: 0.5pg/cell, log [Nateglinide] (M) -7.49485, Fig S1b, read-out: IP1 accumulation): 5.53%
- activation at 100 µM (MRGPRX4: 1pg/cell, log [Nateglinide] (M) -4, Fig S1b, read-out: IP1 accumulation): 92.1%
- activation at 20 µM (MRGPRX4: 1pg/cell, log [Nateglinide] (M) -4.69897, Fig S1b, read-out: IP1 accumulation): 75.4%
- activation at 4 µM (MRGPRX4: 1pg/cell, log [Nateglinide] (M) -5.39794, Fig S1b, read-out: IP1 accumulation): 37.9%
- activation at 0.8 µM (MRGPRX4: 1pg/cell, log [Nateglinide] (M) -6.09691, Fig S1b, read-out: IP1 accumulation): 17.7%
- activation at […] (MRGPRX4: 1pg/cell, log [Nateglinide] (M) -6.79588, Fig S1b, read-out: IP1 accumulation): 11.7%
- activation at 0.032 µM (MRGPRX4: 1pg/cell, log [Nateglinide] (M) -7.49485, Fig S1b, read-out: IP1 accumulation): 9.46%
- activation at 100 µM (MRGPRX4: 2pg/cell, log [Nateglinide] (M) -4, Fig S1b/c, read-out: IP1 accumulation): 100%
- activation at 20 µM (MRGPRX4: 2pg/cell, log [Nateglinide] (M) -4.69897, Fig S1b/c, read-out: IP1 accumulation): 88.5%
- activation at 4 µM (MRGPRX4: 2pg/cell, log [Nateglinide] (M) -5.39794, Fig S1b/c, read-out: IP1 accumulation): 44.1%
- activation at 0.8 µM (MRGPRX4: 2pg/cell, log [Nateglinide] (M) -6.09691, Fig S1b/c, read-out: IP1 accumulation): 21.4%
- activation at […] (MRGPRX4: 2pg/cell, log [Nateglinide] (M) -6.79588, Fig S1b/c, read-out: IP1 accumulation): 13.8%
- activation at 0.032 µM (MRGPRX4: 2pg/cell, log [Nateglinide] (M) -7.49485, Fig S1b/c, read-out: IP1 accumulation): 12.6%
- activation at 100 µM (MRGPRX4: […], log [Nateglinide] (M) -4, Fig S1b, read-out: IP1 accumulation): 68.7%
- activation at 20 µM (MRGPRX4: […], log [Nateglinide] (M) -4.69897, Fig S1b, read-out: IP1 accumulation): 45%
- activation at 4 µM (MRGPRX4: […], log [Nateglinide] (M) -5.39794, Fig S1b, read-out: IP1 accumulation): 17.6%
- activation at 0.8 µM (MRGPRX4: […], log [Nateglinide] (M) -6.09691, Fig S1b, read-out: IP1 accumulation): 5.45%
- activation at 0.032 µM (MRGPRX4: […], log [Nateglinide] (M) -7.49485, Fig S1b, read-out: IP1 accumulation): 2.09%
- activation at 30 µM (MRGPRX4, nateglinide 30uM, Fig S1d): 86.4%
- activation at 100 µM (MRGPRX4, nateglinide 100uM, Fig S1d, read-out: IP1 accumulation): 100%
- activation at 100 µM (MRGPRX4 alone, log [Nateglinide] (M) -4, Fig S3a-c, read-out: IP1 accumulation): 100%
- activation at 20 µM (MRGPRX4 alone, log [Nateglinide] (M) -4.69897, Fig S3a-c, read-out: IP1 accumulation): 85.7%
- activation at 4 µM (MRGPRX4 alone, log [Nateglinide] (M) -5.39794, Fig S3a-c, read-out: IP1 accumulation): 46.2%
- activation at 0.8 µM (MRGPRX4 alone, log [Nateglinide] (M) -6.09691, Fig S3a-c, read-out: IP1 accumulation): 23%
- activation at […] (MRGPRX4 alone, log [Nateglinide] (M) -6.79588, Fig S3a-c, read-out: IP1 accumulation): 17.8%
- activation at 0.032 µM (MRGPRX4 alone, log [Nateglinide] (M) -7.49485, Fig S3a-c, read-out: IP1 accumulation): 17.4%
- activation at 30 µM (MRGX4 + Ng, 30uM, U73122 30uM, Fig S1e): 21.3%
- activation at 30 µM (MRGX4 + Ng, 30uM, buffer, Fig S1e): 84.5%
- activation at 100 µM (MRGX4 + Ng, 100uM, U73122 30uM, Fig S1e, read-out: IP1 accumulation): 31%
- activation at 100 µM (MRGX4 + Ng, 100uM, buffer, Fig S1e, read-out: IP1 accumulation): 100%
- activation at 80 µM (SP-FLAG-Nluc-HT7-MRGX4_Tet-GFP10-1D4, log [agonist] (M) -4.09691, read-out: normalized IP1 accumulation): 49.1%
- activation at 16 µM [1]: 42%
- activation at 3.2 µM [1]: 23.5%
- activation at 0.64 µM [1]: 12.9%
- activation at 0.128 µM [1]: 10.3%
- activation at 0.0256 µM [1]: 9.54%
- activation at 16 µM [2]: 10.5%
- activation at 3.2 µM [2]: 7.88%
- activation at 0.64 µM [2]: 7.83%
- activation at 0.128 µM [2]: 7.62%
- activation at 0.0256 µM [2]: 8.15%
- activation at 100 µM (SP-Flag-MRGX4-1D4, log [agonist] (M) -4, read-out: normalized IP1 accumulation): 85.6%
- activation at 20 µM (SP-Flag-MRGX4-1D4, log [agonist] (M) -4.69897, read-out: normalized IP1 accumulation): 66.9%
- activation at 4 µM (SP-Flag-MRGX4-1D4, log [agonist] (M) -5.39794, read-out: normalized IP1 accumulation): 28.3%
- activation at 0.8 µM (SP-Flag-MRGX4-1D4, log [agonist] (M) -6.09691, read-out: normalized IP1 accumulation): 11.8%
- activation at […] (SP-Flag-MRGX4-1D4, log [agonist] (M) -6.79588, read-out: normalized IP1 accumulation): 7.74%
- activation at 0.032 µM (SP-Flag-MRGX4-1D4, log [agonist] (M) -7.49485, read-out: normalized IP1 accumulation): 8.22%
- activation at 100 µM (SP-Flag-MRGX4-GFP10-1D4, log [agonist] (M) -4, read-out: normalized IP1 accumulation): 100%
- activation at 20 µM (SP-Flag-MRGX4-GFP10-1D4, log [agonist] (M) -4.69897, read-out: normalized IP1 accumulation): 74%
- activation at 4 µM (SP-Flag-MRGX4-GFP10-1D4, log [agonist] (M) -5.39794, read-out: normalized IP1 accumulation): 34.7%
- activation at 0.8 µM (SP-Flag-MRGX4-GFP10-1D4, log [agonist] (M) -6.09691, read-out: normalized IP1 accumulation): 13.4%
- activation at […] (SP-Flag-MRGX4-GFP10-1D4, log [agonist] (M) -6.79588, read-out: normalized IP1 accumulation): 8.46%
- activation at 0.032 µM (SP-Flag-MRGX4-GFP10-1D4, log [agonist] (M) -7.49485, read-out: normalized IP1 accumulation): 8.07%
- activation at 3.7037 µM (log [agonist] (M) -5.43136, MRGX4-transfected, individual replicates, read-out: IP1 accumulation, dose-response (Figure 1a)): 40%
- activation at 0.4115 µM (log [agonist] (M) -6.38561, MRGX4-transfected, individual replicates, read-out: IP1 accumulation, dose-response (Figure 1a)): 19.1%
- activation at 100 µM (log [nateglinide] (M) -4, Dox 13 ng/mL, Supplementary Figure 5a, read-out: IP1 accumulation (normalized)): 79.6%
- activation at 100 µM (log [nateglinide] (M) -4, Dox 13 ng/mL, Supplementary Figure 5b, read-out: IP1 accumulation (normalized)): 13.6%
- activation at 100 µM (log [nateglinide] (M) -4, Dox 13 ng/mL, Supplementary Figure 5c, read-out: IP1 accumulation (normalized)): 46.6%
- activation at 100 µM (log [nateglinide] (M) -4, Dox 40 ng/mL, Supplementary Figure 5a, read-out: IP1 accumulation (normalized)): 82.2%
